The structures appear in SMILES notation.

The nature of data set [1]: Relative stability experiments: non-competitive and competitive interconversion of crystal forms of Compound 1. Format: physicochemical. Particulars: for crystal form of the resulting material (pXRD, DSC, TGA, 1H-NMR): non-competitive, single starting form, refluxed in deionized water at about 95° C. for 3 hours. The protocol:
The relative stability of various crystal forms of Compound 1 were subjected to non-competitive and competitive interconversion experiments.
In Example 12a, Form A of Compound 1 (0.4 g) prepared according to Preparation Example 5c was refluxed in deionized water (4 mL) at about 95° C. for 3 hours. The slurry was cooled to 25-30° C., filtered, suction dried for 1 hour and dried in a vacuum oven at 70° C. and 8 kPa absolute pressure for 12 hours.
In Example 12b, Form B of Compound 1 (0.4 g) prepared according to Preparation Example 5f was refluxed in deionized water (4 mL) at about 95° C. for 3 hours. The slurry was cooled to 25-30° C., filtered, suction dried for 1 hour and dried in a vacuum oven at 70° C. and 8 kPa absolute pressure for 12 hours. Analysis by pXRD, DSC, TGA and ^1H-NMR of the resulting material indicated Form A.
In Example 12c, Form D of Compound 1 (0.4 g) prepared according to Preparation Example 5g was refluxed in deionized water (4 mL) at about 95° C. for 3 hours. The slurry was cooled to 25-30° C., filtered, suction dried for 1 hour and dried in a vacuum oven at 70° C. and 8 kPa absolute pressure for 12 hours. Analysis by pXRD, DSC, TGA and ^1H-NMR of the resulting material indicated Form A.
In Example 12d, Form TS of Compound 1 (1 g) prepared according to Preparation Example 1 was refluxed in deionized water (10 mL) at about 95° C. for 3 hours. The slurry was cooled to 25-30° C., filtered, suction dried for 1 hour and dried in a vacuum oven at 65° C. and 8 kPa absolute pressure for 12 hours. Analysis by pXRD, DSC, TGA and ^1H-NMR of the resulting material indicated Form A.
In Example 12e, Form A (0.6 g) and Form B (0.6 g) of Compound 1 prepared according to Preparation Examples 5c and 5f, respectively, were blended as solids and refluxed in deionized water (12 mL) at about 95° C. for 3 hours. The slurry was cooled to 25-30° C., filtered, suction dried for 1 hour and dried in a vacuum oven at 65° C. and 8 kPa absolute pressure for 12 hours. Analysis by pXRD, DSC, TGA and ^1H-NMR of the resulting material indicated Form A.
In Example 12f, Form B (0.6 g) and Form D (0.6 g) of Compound 1 prepared according to Preparation Examples 5f and 5g, respectively, were blended as solids and refluxed in deionized water (12 mL) at about 95° C. for 3 hours. The slurry was cooled to 25-30° C., filtered, suction dried for 1 hour and dried in a vacuum oven at 65° C. and 8 kPa absolute pressure for 12 hours. Analysis by pXRD, DSC and ^1H-NMR of the resulting material indicated Form A.
In Example 12g, Form A (0.6 g) and Form D (0.6 g) of Compound 1 prepared according to Preparation Examples 5c and 5g, respectively, were blended as solids and refluxed in deionized water (12 mL) at about 95° C. for 3 hours. The slurry was cooled to 25-30° C., filtered, suction dried for 1 hour and dried in a vacuum oven at 65° C. and 8 kPa absolute pressure for 12 hours. Analysis by pXRD, DSC and ^1H-NMR of the resulting material indicated Form A.
In Example 12h, Form A (0.25 g), Form B (0.25 g), Form D (0.25 g) and Form TS (0.25 g) of Compound 1 prepared according to Preparation Examples 5c, 5f, 5g, and 1, respectively, were blended as solids and refluxed in deionized water (10 mL) at about 95° C. for 3 hours. The slurry was cooled to 25-30° C., filtered, suction dried for 1 hour and dried in a vacuum oven at 65° C. and 8 kPa absolute pressure for 12 hours. Analysis by pXRD, DSC and ^1H-NMR of the resulting material indicated Form A.
In Example 12i, Form A (0.25 g), Form B (0.25 g), Form D (0.25 g) and mixed Forms A and B (0.25 g) of Compound 1 prepared according to Preparation Examples 5c, 5f, 5g and 2, respectively, were blended as solids and refluxed in deionized water (10 mL) at about 95° C. for 3 hours. The slurry was cooled to 25-30° C., filtered, suction dried for 1 hour and dried in a vacuum oven at 65° C. and 8 kPa absolute pressure for 12 hours. Analysis by pXRD, DSC and ^1H-NMR of the resulting material indicated Form A. […]

Data set [2] is described as follows: Stability experiment for polymorph Form A of Compound 1 (stability chamber). Format: physicochemical. The protocol: The physical stability of Form A of Compound 1 was determined as follows. Compound 1 prepared according to Preparation Example 3 was analyzed by pXRD, DSC, HPLC and ^1H-NMR and found to be of pure crystal Form A of 99.9% purity (by HPLC peak area at 230 nm detection wavelength). An aliquot of the sample (3.0 g) was placed in a primary polyethylene bag, the primary bag was flushed with nitrogen gas and sealed. The primary polyethylene bag was then placed in a secondary polyethylene bag which was again flushed with nitrogen gas and a silica gel sachet was placed between the inner and the outer bag. The double bagged material was then placed in a triple laminated aluminum pouch and placed in a stability chamber at 40° C. for 30 days. Analysis by HPLC and ^1H-NMR of the resulting material indicated pure Form A of Compound 1 of 99.9% purity (by HPLC peak area at 230 nm).

[3] abbreviates: Example 12h, competitive: Forms A, B, D and TS blended, deionized water, about 95° C., 3 hours.
Where [4] appears, read: Example 12e, competitive: Form A + Form B blended, deionized water, about 95° C., 3 hours.
Setting [5] is: Example 12g, competitive: Form A + Form D blended, deionized water, about 95° C., 3 hours.
The mark [6] stands for this setting: Example 12i, competitive: Forms A, B, D and mixed Forms A and B blended, deionized water, about 95° C., 3 hours.
Setting [7] is: Example 12j, competitive: Forms A, B, D and mixed Forms A and B blended, methanol, about 55° C., 3 hours.
The mark [8] stands for this setting: Example 12k, competitive: Forms A, B and D blended, deionized water, about 55° C., 168 hours.
The mark [9] stands for this setting: Example 12f, competitive: Form B + Form D blended, deionized water, about 95° C., 3 hours.

Take `COc1ccc(Cl)c(S(=O)(=O)NC(=O)c2cn3cc(C(F)(F)F)cc(Cl)c3n2)c1` [Form TS, 8-chloro-N-[(2-chloro-5-methoxyphenyl)sulfonyl]-6-(trifluoromethyl)-imidazo[1,2-a]pyridine-2-carboxamide]: the “crystal form of the resulting material” value in data set [1] (setting [3]) is “Form A”. Also, the “crystal form of the resulting material (pXRD, DSC, TGA, 1H-NMR)” value (from here on “crystal form … (pXRD, DSC, TGA, 1H-NMR)”) in data set [1] was “Form A”.

Turning to `COc1ccc(Cl)c(S(=O)(=O)NC(=O)c2cn3cc(C(F)(F)F)cc(Cl)c3n2)c1` [Form A, 8-chloro-N-[(2-chloro-5-methoxyphenyl)sulfonyl]-6-(trifluoromethyl)-imidazo[1,2-a]pyridine-2-carboxamide], the “crystal form of the resulting material” value in data set [1] (setting [4]), in data set [1] (setting [5]), in data set [1] (setting [6]), in data set [1] (setting [7]), in data set [1] (setting [8]) and in data set [1] (setting [3]) was “Form A” throughout. Moreover, in data set [1], the “crystal form … (pXRD, DSC, TGA, 1H-NMR)” value is “remained unchanged, i.e. Form A”. For the same compound, the “relative thermodynamic stability of the solid forms, in words” value in data set [1] (under the conditions studied) was “most thermodynamically stable polymorph form”. In addition, in data set [2] (40° C. for 30 days), the “crystal form after storage (pXRD and DSC)” value was “pure polymorph Form A”. For the same compound, the “purity after storage (HPLC peak area at 230 nm)” value in data set [2] (40° C. for 30 days, sealed under nitrogen in double polyethylene bag and aluminum pouch) stood at 99.9%. In data set [2] (pure solid form), the “physical and chemical stability, in words” value was “physically and chemically stable”.

For `COc1ccc(Cl)c(S(=O)(=O)NC(=O)c2cn3cc(C(F)(F)F)cc(Cl)c3n2)c1` [Form D, 8-chloro-N-[(2-chloro-5-methoxyphenyl)sulfonyl]-6-(trifluoromethyl)-imidazo[1,2-a]pyridine-2-carboxamide], the “crystal form of the resulting material” value in data set [1] (setting [9]), in data set [1] (setting [5]), in data set [1] (setting [6]), in data set [1] (setting [7]), in data set [1] (setting [8]) and in data set [1] (setting [3]) was “Form A” throughout. Further, the “crystal form … (pXRD, DSC, TGA, 1H-NMR)” value in data set [1] is “Form A”.

`COc1ccc(Cl)c(S(=O)(=O)NC(=O)c2cn3cc(C(F)(F)F)cc(Cl)c3n2)c1` [Form B, 8-chloro-N-[(2-chloro-5-methoxyphenyl)sulfonyl]-6-(trifluoromethyl)-imidazo[1,2-a]pyridine-2-carboxamide]: the “crystal form of the resulting material” value in data set [1] (setting [4]), in data set [1] (setting [9]), in data set [1] (setting [6]), in data set [1] (setting [7]), in data set [1] (setting [8]) and in data set [1] (setting [3]) was “Form A” each time. Further, in data set [1], the “crystal form … (pXRD, DSC, TGA, 1H-NMR)” value is recorded as “Form A”.

For `COc1ccc(Cl)c(S(=O)(=O)NC(=O)c2cn3cc(C(F)(F)F)cc(Cl)c3n2)c1` [mixed Forms A and B, 8-chloro-N-[(2-chloro-5-methoxyphenyl)sulfonyl]-6-(trifluoromethyl)-imidazo[1,2-a]pyridine-2-carboxamide], the “crystal form of the resulting material” value in data set [1] (setting [6]), in data set [1] (setting [7]) and in data set [1] (Example 12l: slurry in deionized water stirred at 25° C. for about 168 hours) was “Form A” each time.
